{"source": "patent US20190209501A1", "about": "“COMPOSITIONS AND METHODS OF USE OF BETA-HYDROXY-BETA-METHYLBUTYRATE (HMB) […] IN[…]” (Texas Tech University Office of Research Commercialization, priority 2018, published 2019)", "key": {"[1]": {"assay": "Urinary HMB concentrations", "assay_type": "in vivo, human", "details": "for Urinary HMB concentration, Intervention: during intervention, 3 g/d calcium HMB", "from_the_text": "(§1) At baseline and after 4 and 8 weeks of the intervention, participants completed two testing sessions: (1) a morning assessment conducted after an overnight fast for assessment of body composition, metabolism, vascular measures and subjective factors: and (2) an afternoon assessment of muscular performance, conducted in the non-fasted state. For morning assessments, participants reported to the laboratory after abstention from eating, drinking, exercising and utilizing caffeine or nicotine for ≥8 hours. Participants were interviewed to confirm adherence to these pre-assessment restrictions. The actual abstention from exercise was ≥14 hours due to the scheduling of exercise sessions. Participants reported to the laboratory wearing athletic clothing, and all metal and accessories were removed from the body prior to testing. Each participant voided her bladder and provided a urine sample. Urine samples were assessed for urine specific gravity (USG) using a digital refractometer (PA201X-093. Misco, Solon, Ohio. USA). Additionally, a standard urinary HCG test was performed to confirm that each participant was not pregnant. Finally, urinary samples were frozen at −80° C. for assessment of urinary HMB content after study unblinding. After voiding, each participant's body mass (BM) and height were determined via digital scale with stadiometer (Seca 769, Hamburg, Germany). Blood draws were performed at Texas Tech University Student Health Services after an overnight fast, and participants completed at-home saliva collections for assessment of the cortisol awakening response (CAR)."}, "[2]": {"details": "3 g/d Calcium-HMB without intermittent fasting + RT, cited from earlier work"}, "[3]": {"assay": "Salivary cortisol awakening response", "assay_type": "in vivo, human", "design": "Cortisol Awakening Response (AUC) / Cortisol Awakening Response (AUC) Δ: unit not given here", "details": "for Average Cortisol / Cortisol Awakening Response (AUC): mean ± SE; for Average Cortisol Δ / Average Cortisol Δ (%) / Cortisol Awakening Response (AUC) Δ / Cortisol Awakening Response (AUC) Δ (%): change baseline to W 8; for Average Cortisol ES (d) / Cortisol Awakening Response (AUC) ES (d): effect size", "from_the_text": "as §1\nEach participant was familiarized with the saliva collection procedures at the baseline visit. Saliva collection took place using the passive drool method, with allows for saliva to be transferred from the mouth to a small vial according to manufacturer recommendations (36). Three saliva samples during the baseline period for assessment of the cortisol awakening response (CAR; the characteristic increase in cortisol concentrations upon waking (37)). These samples were collected at the participant's home 0, 30 and 45 minutes after waking. The importance of collecting the saliva sample exactly as instructed was strongly emphasized to research participants. Participants were provided with reminder signs to place by the bedside and were instructed to set alarms for saliva collection timepoints. Upon obtaining the sample, each participant was instructed to place the vial in the freezer until it could be transported to the laboratory. Upon delivery to the lab, each vial of saliva was stored at −80° C. until shipment to a saliva testing facility for analysis (Salimetrics LLC, Carlsbad, Calif., USA). For the analysis, samples were thawed to room temperature, vortexed, and then centrifuged for 15 minutes at approximately 3,000 RPM (1,500×g) immediately before performing the assay. Samples were tested for salivary cortisol using a high sensitivity enzyme immunoassay (Cat. No. 1-3002). Sample test volume was 25 μl of saliva per determination. The assay has a lower limit of sensitivity of 0.007 μg/dL, a standard curve range from 0.012-3.0 μg/dL, and an average intra-assay coefficient of variation of 4.60%, and an average inter-assay coefficient of variation 6.00%, which meets the manufacturers' criteria for accuracy and repeatability in Salivary Bioscience. and exceeds the applicable NIH guidelines for Enhancing Reproducibility through Rigor and Transparency."}}}
{"smiles": "CC(C)(O)CC(=O)O", "note": "[TRFHMB, β-hydroxy-β-methylbutyrate]", "values": [{"measurement": "Urinary HMB concentration, Intervention", "setting": "[1]; ITT analysis", "value": "5033 ± 751", "unit": "nmol/mL"}, {"measurement": "Urinary HMB concentration, Intervention", "setting": "[1]; PP analysis", "value": "6553 ± 1117", "unit": "nmol/mL"}, {"measurement": "Change in urinary HMB concentrations from pre-intervention to intervention", "setting": "[1]; both ITT and PP analyses", "value": "increased significantly"}, {"measurement": "BF % after 4 weeks", "setting": "[2]; females n=18, from 23.7±1.1, nonsignificant", "value": "23.0±1.2", "unit": "%"}, {"measurement": "BF % 4-week Δ-change", "setting": "[2]", "value": "−0.7", "unit": "%"}, {"measurement": "Average Cortisol", "setting": "[3]; ITT, Baseline", "value": "0.40 ± 0.07", "unit": "µg/dL"}, {"measurement": "Cortisol Awakening Response (AUC)", "setting": "[3]; ITT, Baseline", "value": "17.5 ± 3.2"}, {"measurement": "Average Cortisol", "setting": "[3]; ITT, W 8", "value": "0.39 ± 0.98", "unit": "µg/dL"}, {"measurement": "Cortisol Awakening Response (AUC)", "setting": "[3]; ITT, W 8", "value": "16.9 ± 4.0"}, {"measurement": "Average Cortisol Δ", "setting": "[3]; ITT", "value": -0.01, "unit": "µg/dL"}, {"measurement": "Average Cortisol Δ (%)", "setting": "[3]; ITT", "value": "−3", "unit": "%"}, {"measurement": "Cortisol Awakening Response (AUC) Δ", "setting": "[3]; ITT", "value": "−0.6"}, {"measurement": "Cortisol Awakening Response (AUC) Δ (%)", "setting": "[3]; ITT", "value": "−3", "unit": "%"}, {"measurement": "Average Cortisol ES (d)", "setting": "[3]; ITT", "value": "−0.04"}, {"measurement": "Cortisol Awakening Response (AUC) ES (d)", "setting": "[3]; ITT", "value": "−0.05"}, {"measurement": "Average Cortisol", "setting": "[3]; PP, Baseline", "value": "0.34 ± 0.07", "unit": "µg/dL"}, {"measurement": "Cortisol Awakening Response (AUC)", "setting": "[3]; PP, Baseline", "value": "14.0 ± 3.3"}, {"measurement": "Average Cortisol", "setting": "[3]; PP, W 8", "value": "0.42 ± 0.1", "unit": "µg/dL"}, {"measurement": "Cortisol Awakening Response (AUC)", "setting": "[3]; PP, W 8", "value": "18.2 ± 4.7"}, {"measurement": "Average Cortisol Δ", "setting": "[3]; PP", "value": 0.1, "unit": "µg/dL"}, {"measurement": "Average Cortisol Δ (%)", "setting": "[3]; PP", "value": 24, "unit": "%"}, {"measurement": "Cortisol Awakening Response (AUC) Δ", "setting": "[3]; PP", "value": 4.2}, {"measurement": "Cortisol Awakening Response (AUC) Δ (%)", "setting": "[3]; PP", "value": 30, "unit": "%"}, {"measurement": "Average Cortisol ES (d)", "setting": "[3]; PP", "value": 0.93}, {"measurement": "Cortisol Awakening Response (AUC) ES (d)", "setting": "[3]; PP", "value": 0.64}]}
